Paper PMC4774911, “Biochemical Screening of Five Protein Kinases from Plasmodium falciparum against 14,000 Cell-Active Compounds” (PLoS ONE, 2016)

How the values were obtained:
[1] = target: T1, Plasmodium falciparum calcium-dependent protein kinase 1 (CDPK1) (Plasmodium falciparum, UniProt P62344); assay: CDPK1 Kinase-Glo ATP-consumption screen and dose-response; assay type: biochemical; details: hits below 1 uM; read-out: CDPK1 IC50
T1 construct: 6-Histidine (N); made in house
Experimental: Biochemical assays were performed in white 384-well plates (Nunc). Liquid transfers were done manually with 8-channel pipets. Compounds were initially tested in a single-point screen (final concentration 1 μM). […] The catalytic activity of each kinase was considered proportional to ATP consumed, as determined from measurements of residual [ATP] with the luciferase-based reagent Kinase-Glo (Promega) following incubation. Luminescence (proportional to residual [ATP]) was measured on the plate readers FLx800 (BioTek Instruments, Winooski, VT, USA) and MicroBeta^2 (PerkinElmer, Waltham, MA, USA). Incubation times were chosen to ensure near-complete ATP depletion in the absence of inhibition, thus maximizing the difference in signal between inhibited and uninhibited wells.
40 μM Syntide-2 was used as a substrate; BKI-1 [14] was used as a control inhibitor, while reaction mixtures lacking Syntide-2 were included as an additional negative control. Incubation time was 90 minutes. Reactions were terminated by adding excess EGTA (5 mM), which sequesters Ca^2+ and halts calcium-dependent kinase activity.

HepG2 cells = details: HepG2; downloaded from ChEMBL; ref F.J. Gamo et al., Nature 2010; cited from earlier work
P. falciparum 3D7 cells = details: 3D7; downloaded from ChEMBL; ref F.J. Gamo et al., Nature 2010; cited from earlier work
DD2 = test system: DD2; parameters: method as in F.J. Gamo et al., Nature 2010; details: downloaded from ChEMBL, ref F.J. Gamo et al., Nature 2010; cited from earlier work
3D7 PFLDH = test system: 3D7 PFLDH; parameters: method as in F.J. Gamo et al., Nature 2010; concentration or dose not given beside the values; details: downloaded from ChEMBL, ref F.J. Gamo et al., Nature 2010; cited from earlier work

T1 sequence (P62344 whole entry): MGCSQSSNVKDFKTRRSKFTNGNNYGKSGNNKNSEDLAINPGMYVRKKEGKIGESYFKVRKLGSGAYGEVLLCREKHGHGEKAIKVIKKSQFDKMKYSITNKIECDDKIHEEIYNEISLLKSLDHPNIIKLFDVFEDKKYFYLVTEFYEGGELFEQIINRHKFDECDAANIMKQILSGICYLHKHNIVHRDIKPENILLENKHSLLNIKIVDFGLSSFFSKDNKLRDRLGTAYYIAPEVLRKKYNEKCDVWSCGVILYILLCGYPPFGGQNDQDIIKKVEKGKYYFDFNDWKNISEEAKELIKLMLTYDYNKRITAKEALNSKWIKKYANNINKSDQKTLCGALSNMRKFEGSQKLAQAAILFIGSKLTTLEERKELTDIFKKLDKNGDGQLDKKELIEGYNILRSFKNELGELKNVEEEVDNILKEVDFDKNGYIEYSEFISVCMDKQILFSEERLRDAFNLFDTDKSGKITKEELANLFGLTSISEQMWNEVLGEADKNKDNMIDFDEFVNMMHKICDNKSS

Compound | IC50 [1] | PCT_INHIB_HEPG2 (HepG2 cells) | PCT_IHB_3D7 (P. falciparum 3D7 cells) | pXC50_3D7 (P. falciparum 3D7 cells) | PCT_INHB_DD2 (DD2) | PCT_INHIB_3D7_PFLDH (3D7 PFLDH)
CNC(=O)c1ccccc1Nc1nc(Nc2ccc(C(=O)O)cc2)ncc1Cl.Cl [TCMDC-133803] | 246 nM | 60% | 92% | 6.022 | 92% | 0%
CCn1c(-c2nonc2N)nc2c(-c3ccc(CO)o3)ncc(OCCCN)c21.O=C(O)C(F)(F)F [TCMDC-133807] | 51 nM | 0% | 93% | 5.866 | 97% | 0%
NC(=O)c1ccccc1Nc1nc(Nc2cc[nH]n2)ncc1Cl [TCMDC-134169] | 186 nM | 67% | 96% | 6.019 | 93% | 0%
O=C(O)C(F)(F)F.O=c1[nH]ccc2nc(N[C@@H]3CCNC3)nc(Nc3ccc4c(c3)S(=O)(=O)CC4)c12 [TCMDC-135044] | 235 nM | 0% | 100% | 6.4233 | 99% | 0%
CCOC(=O)c1cccc(NC(=O)Nc2cccc(-c3ncc(OCCCN)c4c3nc(-c3nonc3N)n4CC)c2)c1.O=C(O)C(F)(F)F [TCMDC-136205] | 294 nM | 16% | 100% | 6.0485 | 98% | 2%
Cl.N#CCc1ccc(Nc2nccc(Nc3ccc(Oc4ccccc4)cc3)n2)cc1 [TCMDC-138577] | 798 nM | 0% | 98% | 6.094 | 47% | 6%
CC(=O)Nc1cccc(Nc2nccc(Nc3ccc(Oc4ccccc4)cc3)n2)c1.Cl [TCMDC-138590] | 425 nM | 15% | 100% | 6.128 | 99% | 0%
O=C(NCCN1CCCCC1)c1cccc(Nc2nccc(Nc3ccc(Oc4ccccc4)cc3)n2)c1 [TCMDC-138603] | 250 nM | 50% | 99% | 6.563 | 86% | 0%
O=C(NCCN1CCC(c2ccncc2)CC1)c1cccc(Nc2nccc(Nc3ccc(Oc4ccccc4)cc3)n2)c1 [TCMDC-138607] | 220 nM | 60% | 100% | 6.773 | 91% | 0%
O=C(NCCCN1CCCCC1)c1ccc(Nc2nccc(Nc3ccc(Oc4ccccc4)cc3)n2)cc1 [TCMDC-138609] | 94 nM | 30% | 100% | 6.204 | 61% | 0%
CN1CCN(Cc2cccc(Nc3nccc(Nc4ccc(Oc5ccccc5)cc4)n3)c2)CC1 [TCMDC-138614] | 801 nM | 30% | 97% | 6.529 | 80% | 2%
CN1CCN(CCCNCc2ccc(Nc3nccc(Nc4ccc(Oc5ccccc5)cc4)n3)cc2)CC1 [TCMDC-138621] | 139 nM | 17% | 100% | 6.197 | 9% | 0%
Cc1ccc(Nc2nc3cc(N(C)c4ccnc(Nc5cccc(CCS(C)(=O)=O)c5)n4)ccc3n2C)cc1.O=C(O)C(F)(F)F [TCMDC-138853] | 160 nM | 78% | 99% | 6.469 | 73% | 4%

Continued by falling IC50 [1], values first:

IC50 [1] | Compound | PCT_INHIB_HEPG2 (HepG2 cells) | PCT_IHB_3D7 (P. falciparum 3D7 cells) | pXC50_3D7 (P. falciparum 3D7 cells) | PCT_INHB_DD2 (DD2) | PCT_INHIB_3D7_PFLDH (3D7 PFLDH)
765 nM | Cl.c1ccc(Oc2ccc(Nc3ccnc(Nc4ccc5cn[nH]c5c4)n3)cc2)cc1 [TCMDC-138574] | 6% | 94% | 6.135 | 33% | 0%
701 nM | Cl.c1ccc(Oc2ccc(Nc3ccnc(Nc4ccc(OCCN5CCCCC5)cc4)n3)cc2)cc1 [TCMDC-138583] | 23% | 97% | 6.219 | 66% | 0%
336 nM | CCCN1CCN(CCNC(=O)c2cccc(Nc3nccc(Nc4ccc(Oc5ccccc5)cc4)n3)c2)CC1 [TCMDC-138606] | 56% | 99% | 6.622 | 96% | 0%
261 nM | CN1CCN(CCCNCc2cccc(Nc3nccc(Nc4ccc(Oc5ccccc5)cc4)n3)c2)CC1 [TCMDC-138616] | 97% | 100% | 6.117 | 80% | 0%
243 nM | O=C(NCCCN1CCCCC1)c1cccc(Nc2nccc(Nc3ccc(Oc4ccccc4)cc3)n2)c1 [TCMDC-138605] | 47% | 96% | 6.086 | 12% | 2%
213 nM | O=C(NCCN1CCCC1)c1cccc(Nc2nccc(Nc3ccc(Oc4ccccc4)cc3)n2)c1 [TCMDC-138602] | 33% | 100% | 6.184 | 18% | 0%
180 nM | O=C(NCCCN1CCOCC1)c1cccc(Nc2nccc(Nc3ccc(Oc4ccccc4)cc3)n2)c1 [TCMDC-138604] | 34% | 98% | 6.116 | 22% | 0%
135 nM | O=C(NCCN1CCC(c2ccncc2)CC1)c1ccc(Nc2nccc(Nc3ccc(Oc4ccccc4)cc3)n2)cc1 [TCMDC-138610] | 17% | 100% | 6.14 | 90% | 1%
114 nM | Cn1c(Nc2cc(C(C)(C)C)on2)nc2cc(Nc3ccnc(Nc4cccc(CS(C)(=O)=O)c4)n3)ccc21 [TCMDC-141893] | 63% | 99% | 6.243 | 94% | 0%
103 nM | O=C(NCCN1CCCCC1)c1ccc(Nc2nccc(Nc3ccc(Oc4ccccc4)cc3)n2)cc1 [TCMDC-138608] | 58% | 100% | 6.257 | 91% | 0%
12 nM | CN1CCN(c2ccc(Nc3ncc(Cl)c(Nc4cccnc4C(N)=O)n3)cc2)CC1.Cl [TCMDC-134164] | 99% | 95% | 6.816 | 97% | 0%
